# In patent US9981918B2, “Kynurenine-3-monooxygenase inhibitors, pharmaceutical compositions, and methods of use thereof” (CHDI Foundation, Inc., priority 2011, dated 2018):
# Tested on: KMO
# Assay: KMO inhibition: L-Kynurenine hydroxylation to 3-Hydroxy-Kynurenine monitored by LC/MS
# Format: biochemical
# Conditions: compound at 10 uM; footnote: some portion of activity of amides may be due to contribution of acid precursor
# Method: A generalized procedure for monitoring L-Kynurenine (KYN) hydroxylation to form product 3-Hydroxy-Kynurenine (30H-KYN) by LC/MS is described below. Product is quantified by multiple reaction monitoring using MS.
# A method of monitoring L-Kynurenine (KYN) hydroxylation to form product 3-Hydroxy-Kynurenine (30H-KYN) by LC/MS is described below. Product is quantified by multiple reaction monitoring.
# • Compound: Stock concentrations: 10 mM in 100% DMSO • Enzyme: KMO enzyme prepared at Evotec via mitochondria isolation from CHO-GST HIS KMO cells • Substrate: L-Kynurenine (Sigma: Cat# K3750) • [stock concentration: 10 mM in 100 mM potassium phosphate buffer, pH 7.4]
# A method of monitoring L-Kynurenine (KYN) hydroxylation to form 3-Hydroxy-Kynurenine (30H-KYN) by LC/MS is described. Product is quantified by multiple reaction monitoring (MRM method).
smiles,measurement,value
"O=C(OC[C@H]1OC(O)[C@H](O)[C@@H](O)[C@@H]1O)c1cc(-c2ccc(OC3CC3)c(Cl)c2)ncn1 (stereo partly drawn) [[(2R,3S,4S,5R)-3,4,5,6-tetrahydroxyoxan-2-yl]methyl 6-(3-chloro-4-cyclopropoxyphenyl)pyrimidine-4-carboxylate]",% Inhibition at 10 uM*,102%
